# Measured values from paper PMC8307506, “Identification of Dihydromyricetin and Metabolites in Serum and Brain Associated with Acute Anti-Ethanol Intoxicating Effects in Mice” (International Journal of Molecular Sciences, 2021).
# Assay: Quantification of DHM in brain samples
# Assay type: in vivo, mice
# Settings: for Brain Concentration 15 min post DHM: mean ± SEM
# Experimental: Eight-week-old male and female C57BL/6J mice (Jackson’s Laboratories, Bar Harbor, ME, USA) were housed 4 mice to a cage (separated by sex) and maintained on 12-h light, 12-h dark cycles (lights on at 0700 h) in the animal facility at the Department of Animal Sciences, Rutgers University. Following 1-week acclimation, animals were given ad libitum access to water and a polyphenol-free diet (PFD; 3.82 kcal/g, 10% fat, 20% protein, 70% carbohydrate; D12450H; Research Diets, Inc., New Brunswick, NJ, USA) for at least 10 days. For PK studies, after an overnight fast, mice were administered 50 mg/kg DHM (dissolved in 0.9% saline with 10% DMSO) by either IP injection or oral gavage. Oral gavage was performed using single-use, sterile plastic feeding tubes for mice (20 ga × 30 mm; cat# FTP-20-30, Instech Laboratories, (Plymouth Meeting, PA, USA). Mice were deeply anesthetized with 5% isoflurane mixed with oxygen, and blood was collected by cardiac puncture. Following cardiac puncture, animals were exsanguinated and transcardial perfusion with 0.9% saline was performed to ensure blood removal from the brain tissue. Blood and brain samples were collected from a total of 85 mice at 0.25, 0.75, 1.5, 3, 6, 12, 24 h (3–4 mice for each sex and timepoint). Tissues were immediately homogenized with 0.2% formic acid at 1:2 (w/v), and frozen at −80 °C until analysis. Blood was centrifuged at 3000× g for 10 min at 4 °C to isolate serum. For efficacy studies, mice (n = 8/sex) were fasted at 5 h prior to Ethanol gavage 5 g/kg (37% Ethanol in water). DHM 50 mg/kg IP (dissolved in 0.9% saline with 10% DMSO) was administered at 0, 15, 45, 90 and 180 min prior to Ethanol oral gavage. Each mouse was tested at each time point 7 days apart over 6-week period. At the time of Ethanol gavage, mice were placed in oversized conical holders (L: 152 mm X W: 37 mm) and observed for ability to return upright upon being placed in a supine position. Duration of LORR was determined by ability to return upright 3 times within 30 s. To determine whether ethanol-induced tolerance developed, one week (Week 1; Baseline) prior to the 6-week repeated DHM dosing study all mice were oral dose with ethanol (5 g/kg) without any IP injection and LORR was measured. Mice were then re-tested in a similar fashion with oral ethanol 1 week after the DHM 6-week period (Week 8; Post). […] All animal studies were approved by the Institutional Animal Care and Use Committee of Rutgers University (Bello; PROTO999900014, OLAW #A3262-01, 15 March 2017) and complied with NIH Guide for the Care and Use of Laboratory Animals.
# Whole brain samples were homogenized in FA. All brain homogenates were stored at −80 °C and conditioned to room temperature prior to analysis. An aliquot of 300 µL of brain homogenate was added to 50 µL IS solution (417 ng/mL in EtOAc) and 500 µL of EtOAc in an Eppendorf tube. Samples were then vortexed for 30 s and sonicated for 1 min. Samples were centrifuged for 2 min at 3000× g and the supernatant transferred to a glass vial with 10 µL of 2% ascorbic acid in methanol. Samples were extracted two more times with 500 µL EtOAc and the supernatant transferred to the corresponding vial and dried under vacuum. Each sample was then reconstituted with 100 µL of 45% MeOH with 0.1% FA, centrifuged, and aliquoted into an HPLC vial for analysis.
# An Agilent 1290 Infinity II UPLC system interfaced with an Agilent 6470 Triple Quadrupole Mass Spectrometer with an electrospray ionization source (Agilent Technology, Palo Alto, CA, USA) was used for sample analysis. An Waters Acquity UPLC BEH C8 column (2.1 × 150 mm, 1.7 μm) (Milford, MA, USA) column with a VanGuard Acquity C8 guard column (2.1 × 5 mm, 1.7 μm) (Milford, MA, USA) was used for chromatographic separation. The binary mobile phases consisted of water with 0.1% FA (phase A) and acetonitrile (ACN) with 0.1% formic acid (phase B). The flow rate was set at 0.450 mL/min. […]
compound,measurement,setting,value
"O=C1c2c(O)cc(O)cc2O[C@H](c2cc(O)c(O)c(O)c2)[C@H]1O [DHM, Dihydromyricetin]",Concentration in brain tissue,"15 min post DHM 50 mg/kg PO or IP, male and female mice, range over groups",50.9 to 861.5 nmol/g
same,Detection of DHM in brain samples,45 min or longer post PO or IP administration of DHM 50 mg/kg,not detected
same,Brain Concentration 15 min post DHM,"female mice, DHM 50 mg/kg IP",864 ± 220 nmol/g
same,Brain Concentration 15 min post DHM,"female mice, DHM 50 mg/kg PO",50.9 ± 2.6 nmol/g
same,Brain Concentration 15 min post DHM,"male mice, DHM 50 mg/kg IP",672 ± 85 nmol/g
same,Brain Concentration 15 min post DHM,"male mice, DHM 50 mg/kg PO",423 ± 66 nmol/g
